Each structure is given as a SMILES string. Converted amounts (≈) assume the structure as drawn. Where two headings read alike, the source gives them in different places.

This is an account of results in patent EP0711275B1, “(THIO)CARBIMIDINIC ACID DERIVATIVES AND MEDICAMENTS CONTAINING THE SAME” (BOEHRINGER MANNHEIM GMBH, priority 1993, dated 1995).

The subject of test [1] is HIV-1 (Isolat HTLV III B). The test is described as follows: MT2/MTT test system (antiviral activity in HIV-1-infected MT2 cells). To be noted: read-out: IC50-Werte MT2. Format: cell-based. The source says: (§1) Die antivirale Wirksamkeit einiger ausgewählter Substanzen wurde sowohl in vivo als auch in vitro (Hemmung der reversen Transkriptase RT) untersucht. a) MT2/MTT-Testsystem (in vivo) MT2-Zellen werden mit HIV-1 (Isolat HTLV III B) infiziert. Nach 7 Tagen Inkubation erfolgt der MTT-Test, der die Vitalität der Zellen bestimmt. Die Vitalität der Zellen korreliert mit dem Ausmaß der Virusproduktion. In der folgenden Tabelle werden IC50-Werte angegeben, d. h. diejenige Konzentration der Substanzen, die eine 50%-ige Inhibierung bewirken. b) Hemmung der RT (in vitro) In einem nicht radioaktiven Mikrotiterplattentest wird das Ausmaß der Inhibierung der Aktivität der RT bestimmt. Die Menge an eingebauten Nukleotiden in die zu synthetisierende DNA wird photometrisch bestimmt.
Background: Tetrazolium dyes change colour on reduction, which living cells bring about.

Test [2] has as its target T1, reversen Transkriptase RT (Human immunodeficiency virus type 1 group M subtype B, UniProt P04585).
T1 construct: Hemmung der reversen Transkriptase RT
The test is described as follows: Inhibition of RT, non-radioactive microtitre plate test. Format: biochemical. The settings on record: inhibition of RT activity; incorporated nucleotides determined photometrically; read-out: IC50-Werte RT (converted).
Description: as §1

Where [3] appears, read: Human immunodeficiency virus 1, 168 h, MT2-Zellen infected with HIV-1 (Isolat HTLV III B), 7 days incubation, MTT test of cell vitality.

As for `CC(C)CC(C)SC(=N)NC(=S)Nc1ccc(Cl)cc1` (stereo not shown) [Beispiel 1, N-(4-Chlorphenylaminothiocarbonyl)thiocarbamidinsäure 2-(4-methylpentyl)ester], the IC50 (commonly the concentration needed to halve the response being measured) in test [1] (setting [3]) is 0.6 µg/mL (≈ 1.82 µM); in test [2], 1.82 µM.

Take `CC(C)CC(C)SC(=N)NC(=S)Nc1cccc(F)c1` (stereo not shown) [Beispiel 2b, N-(3-Fluorphenylaminothiocarbonyl)thiocarbamidinsäure 2-(4-methylpentyl)ester]: the IC50 in test [1] (setting [3]) is 3.3 µg/mL (≈ 10.5 µM); in test [2], 3.19 µM.

For the compound `N=C(NC(=S)Nc1ccc(Cl)cc1)SCc1ccccc1` [Beispiel 2e, N-(4-Chlorphenylaminothiocarbonyl)thiocarbamidinsäure-benzylester], the figures for the concentration for half-maximal inhibition (IC50) in test [1] (setting [3]) and in test [2] were less than 3 µg/mL and 7.29 µM, respectively.

In the case of `N=C(NC(=S)Nc1ccc(Cl)cc1)SC1CCCCC1` [Beispiel 2f, N-(4-Chlorphenylaminothiocarbonyl)thiocarbamidinsäure-cyclohexylester], the IC50 in test [1] (setting [3]) was less than 3 µg/mL; in test [2], 0.314 µM.

For `N=C(NC(=S)Nc1ccc(Cl)cc1)SCc1cccc(Cl)c1` [Beispiel 2g, N-(4-Chlorphenylaminothiocarbonyl)thiocarbamidinsäure-3-chlorbenzylester], the IC50 was less than 3 µg/mL in test [1] (Human immunodeficiency virus 1, MT2, 168 h) and 0.891 µM in test [2].

As to `CCCCSC(=N)NC(=S)Nc1ccc(Cl)cc1` [Beispiel 2j, N-(4-Chlorphenylaminothiocarbonyl)thiocarbamidinsäure-butylester], the figures for the half-maximal inhibitory concentration (IC50) in test [1] (setting [3]) and in test [2] were less than 3 µg/mL and 2.52 µM, respectively.

Consider `N=C(NC(=S)Nc1ccc(Cl)cc1)Sc1ccccc1` [Beispiel 2n, N-(4-Chlorphenylaminothiocarbonyl)thiocarbamidinsäure-phenylester], for which the IC50 in test [2] was 2.8 µM.
